Test results reported in paper PMC9776540, “Therapeutic Potential of a Water-Soluble Silver-Diclofenac Coordination Polymer on 3D Pancreatic Cancer Spheroids” (Journal of Medicinal Chemistry, 2022).
Where a name gives a salt, the structure may show the parent alone.

Tests used:
pBR322 plasmid = test: DNA strand break analysis, agarose gel electrophoresis; type: biochemical; conditions: pBR322, 24 h, even at high concentration (500 μM)
Description: Then, the interaction between DNA and diclofenac, PTA, or 1 was evaluated by the gel electrophoresis of pBR322 plasmid to determine an ability to cause double- and/or single-strand DNA damages (Figure 6D). The double-strand damage may result in the appearance of different forms of DNA (linear form III and relaxed form II), which can be quantified by densitometry analysis (Figure 6E).
DNA Strand Break Analysis
The ability of 1, PTA and diclofenac to induce single- or double-strand breaks in plasmid DNA was tested
with the pBR322 plasmid (c = 0.5 mg/mL). All compounds were dissolved in water (c = 1 µM-500 µM).
After 1 h incubation at 37 °C, the reaction mixtures (20 μL) were mixed with 3 μL of loading buffer
(bromophenol blue in 30% glycerol) and loaded on 1% agarose gels, containing EB, in TBE buffer (90
mM Tris–borate, 20 mM EDTA, pH = 8.0). Gel electrophoresis was performed at a constant voltage of
100 V (4 V/cm) for 60 min. The gel was photographed and processed with a Digital Imaging System
(Syngen Biotech). For the densitometric analysis the UltraQuant 6.0 program was used.

DU-145 [1] = test: MTT survival test, surviving fraction (Table S3); type: cell-based, human
Description: (§1) 24, and 72 h. After each incubation time, the cells were washed with PBS. Then, fresh medium (supplemented with 10% FSB) was added, and the cells were incubated under standard conditions for another 24 h (6h + 24h, 24h + 24h, 72h + 24h). After this time, the MTT survival test was done. Surviving fraction given in % was estimated with relation to untreated cells. In the case of 6h + 24h and 24h + 24h approaches, the cells were seeded at 10 000 cells per well, while in the case of 72h + 24h at […]

A549 [2] = test: MTT survival test, surviving fraction (Table S3); type: cell-based, human
Description: as §1

MCF-7 = test: MTT survival test, surviving fraction (Table S3); type: cell-based, human
Description: as §1

HaCat [3] = test: MTT survival test, surviving fraction (Table S3); type: cell-based, human
Description: as §1

PANC-1 [4] = test: MTT survival test, surviving fraction (Table S3); type: cell-based, human
Description: as §1

PANC-1 cells = conditions: PANC-1, 1 at IC50, others at molar ratio 1:1:1, 72 h after treatment
Description: (§2) MCF7 cell line (human breast adenocarcinoma, morphology: epithelial-like, ATCC: HTB-22), A549 cell […]
(§3) keratinocyte, morphology: epidermal, CSL Cell Lines Service GmbH); were cultured in Dulbecco’s Modified Eagle’s Medium (DMEM, Corning) with phenol red, supplemented with 10% fetal bovine serum (FBS) and with 1% streptomycin/penicillin. […]
(§4) from metastatic site: brain, ATCC: HTB-81) and MCR-5 cell line (primary line of human pulmonary […]
(§5) 10% fetal bovine serum (FBS). Cultures were incubated at 37 °C under a humidified atmosphere containing 5% CO2. Cells were transferred using a solution containing 0.05% trypsin and 0.5 mM EDTA.
All media and other ingredients were purchased from ALAB, Poland. […]
Acridine Orange (OA) and Propidium Iodide PI Staining
AO is a nucleic acid-binding fluorophore that is cell membrane permeable and suitable for selective staining of nucleated living cells. PI is a nucleic acid-binding dye that is impermeable to live cells and suitable for staining dead or dying nucleated cells. All live, nucleated cells fluoresce green due to AO, and dead, nucleated cells are stained with both AO and PI and fluoresce red. For analysis of 1-induced

[5] = comparison values, no method or reference printed at the place; cited from earlier work
DU-145 [6] = test: MTT cytotoxicity assay (IC50); type: cell-based, human; conditions: Homo sapiens; DU-145, after 72 h incubation, MTT, vs untreated control cells; read-out: IC50
Description: as §2, §3, §4, §5
(§6) All media and other ingredients were purchased from ALAB, Poland.
(§7) Cytotoxicity was assessed by MTT assay performed according the protocols described elsewhere.S1 In brief, 1×10^4 cells per well, seeded in 96-well flat bottom microtiter plate, were incubated with the tested compounds (in the appropriate media) at various range of concentrations for 24 h. After that time, solutions of compounds were washed out, cells were washed three times with PBS and fresh medium was applied. After next 72 h cell viability was determined using the Hill equation (Origin 9.0) with regard to the untreated cells (control), where y0 – untreated cell control (which was set to 100% viability), y100 – a lysis control (where the cells were treated with 0.5% triton X-100 was set to 0% […]
(§8) [c] at which the viability of the cells reaches 50%, H – the Hill coefficient (describing cooperativity):
(§9) Each compound concentration was tested in five replicates and repeated at least three times.
(§10) Determined values of IC50 are given as mean + S.D. (Standard Deviation).
(§11) Cisplatin was tested as a reference anticancer drug. […]

A549 [7] = test: MTT cytotoxicity assay (IC50); type: cell-based, human; conditions: Homo sapiens; A549, after 72 h incubation, MTT, vs untreated control cells; read-out: IC50
Description: as §2, §3, §4, §5, §6, §7, §8, §9, §10, §11

MRC5 = test: MTT cytotoxicity assay (IC50); type: cell-based, human; conditions: Homo sapiens; MRC5 normal cells, after 72 h incubation, MTT, vs untreated control cells; read-out: IC50
Description: as §2, §3, §4, §5, §6, §7, §8, §9, §10, §11

HaCat [8] = test: MTT cytotoxicity assay (IC50); type: cell-based, human; conditions: Homo sapiens; HaCat normal cells, after 72 h incubation, MTT, vs untreated control cells; read-out: IC50
Description: as §2, §3, §4, §5, §6, §7, §8, §9, §10, §11

PANC-1 [9] = test: MTT cytotoxicity assay (IC50); type: cell-based, human; conditions: Homo sapiens; PANC-1, after 72 h incubation, MTT, vs untreated control cells; read-out: IC50
Description: as §2, §3, §4, §5, §6, §7, §8, §9, §10, §11

MCF7 = test: MTT cytotoxicity assay (IC50); type: cell-based, human; conditions: Homo sapiens; MCF7, after 72 h incubation, MTT, vs untreated control cells; read-out: IC50
Description: as §2, §3, §4, §5, §6, §7, §8, §9, §10, §11

O=C(O)Cc1ccccc1Nc1c(Cl)cccc1Cl [NaDf, diclofenac sodium salt]
degradation of plasmid DNA (pBR322 plasmid): no degradation of DNA
surviving fraction (DU-145 [1]; Du-145, 6h + 24h, dil. 10 000x (stocks: diclofenac 0.918, PTA 0.483, AgNO3 0.326 mg/mL)): 99.5 ± 8.2%
surviving fraction (DU-145 [1]; Du-145, 6h + 24h, dil. 100x (stocks: diclofenac 0.918, PTA 0.483, AgNO3 0.326 mg/mL)): 78.2 ± 5.6%
surviving fraction (DU-145 [1]; Du-145, 6h + 24h, dil. 1000x (stocks: diclofenac 0.918, PTA 0.483, AgNO3 0.326 mg/mL)): 87.7 ± 9.8%
surviving fraction (DU-145 [1]; Du-145, 24h + 24h, dil. 10 000x (stocks: diclofenac 0.918, PTA 0.483, AgNO3 0.326 mg/mL)): 99.5 ± 10.7%
surviving fraction (DU-145 [1]; Du-145, 24h + 24h, dil. 100x (stocks: diclofenac 0.918, PTA 0.483, AgNO3 0.326 mg/mL)): 78.7 ± 7.6%
surviving fraction (DU-145 [1]; Du-145, 24h + 24h, dil. 1000x (stocks: diclofenac 0.918, PTA 0.483, AgNO3 0.326 mg/mL)): 88.4 ± 6.7%
surviving fraction (DU-145 [1]; Du-145, 72h + 24h, dil. 10 000x (stocks: diclofenac 0.918, PTA 0.483, AgNO3 0.326 mg/mL)): 88.7 ± 6.1%
surviving fraction (DU-145 [1]; Du-145, 72h + 24h, dil. 100x (stocks: diclofenac 0.918, PTA 0.483, AgNO3 0.326 mg/mL)): 70.8 ± 7.9%
surviving fraction (DU-145 [1]; Du-145, 72h + 24h, dil. 1000x (stocks: diclofenac 0.918, PTA 0.483, AgNO3 0.326 mg/mL)): 71.4 ± 8.5%
surviving fraction (A549 [2]; A549, 6h + 24h, dil. 10 000x (stocks: diclofenac 0.918, PTA 0.483, AgNO3 0.326 mg/mL)): 99.7 ± 4.3%
surviving fraction (A549 [2]; A549, 6h + 24h, dil. 100x (stocks: diclofenac 0.918, PTA 0.483, AgNO3 0.326 mg/mL)): 72.5 ± 6.8%
surviving fraction (A549 [2]; A549, 6h + 24h, dil. 1000x (stocks: diclofenac 0.918, PTA 0.483, AgNO3 0.326 mg/mL)): 88.7 ± 10.8%
surviving fraction (A549 [2]; A549, 24h + 24h, dil. 10 000x (stocks: diclofenac 0.918, PTA 0.483, AgNO3 0.326 mg/mL)): 98.5 ± 10.9%
surviving fraction (A549 [2]; A549, 24h + 24h, dil. 100x (stocks: diclofenac 0.918, PTA 0.483, AgNO3 0.326 mg/mL)): 70.9 ± 8.9%
surviving fraction (A549 [2]; A549, 24h + 24h, dil. 1000x (stocks: diclofenac 0.918, PTA 0.483, AgNO3 0.326 mg/mL)): 81.8 ± 6.8%
surviving fraction (A549 [2]; A549, 72h + 24h, dil. 10 000x (stocks: diclofenac 0.918, PTA 0.483, AgNO3 0.326 mg/mL)): 89.5 ± 8.2%
surviving fraction (A549 [2]; A549, 72h + 24h, dil. 100x (stocks: diclofenac 0.918, PTA 0.483, AgNO3 0.326 mg/mL)): 67.7 ± 6.5%
surviving fraction (A549 [2]; A549, 72h + 24h, dil. 1000x (stocks: diclofenac 0.918, PTA 0.483, AgNO3 0.326 mg/mL)): 78.5 ± 7.6%
surviving fraction (MCF-7; MCF-7, 6h + 24h, dil. 10 000x (stocks: diclofenac 0.918, PTA 0.483, AgNO3 0.326 mg/mL)): 102.6 ± 13.4%
surviving fraction (MCF-7; MCF-7, 6h + 24h, dil. 100x (stocks: diclofenac 0.918, PTA 0.483, AgNO3 0.326 mg/mL)): 78.6 ± 12.3%
surviving fraction (MCF-7; MCF-7, 6h + 24h, dil. 1000x (stocks: diclofenac 0.918, PTA 0.483, AgNO3 0.326 mg/mL)): 89.5 ± 9.8%
surviving fraction (MCF-7; MCF-7, 24h + 24h, dil. 10 000x (stocks: diclofenac 0.918, PTA 0.483, AgNO3 0.326 mg/mL)): 98.2 ± 9.8%
surviving fraction (MCF-7; MCF-7, 24h + 24h, dil. 1000x (stocks: diclofenac 0.918, PTA 0.483, AgNO3 0.326 mg/mL)): 88.7 ± 10.6%
surviving fraction (MCF-7; MCF-7, 72h + 24h, dil. 10 000x (stocks: diclofenac 0.918, PTA 0.483, AgNO3 0.326 mg/mL)): 97.8 ± 7.7%
surviving fraction (MCF-7; MCF-7, 72h + 24h, dil. 1000x (stocks: diclofenac 0.918, PTA 0.483, AgNO3 0.326 mg/mL)): 85.4 ± 5.3%
surviving fraction (HaCat [3]; 6h + 24h, dil. 10 000x (stocks: diclofenac 0.918, PTA 0.483, AgNO3 0.326 mg/mL)): 99.6 ± 10.8%
surviving fraction (HaCat [3]; 6h + 24h, dil. 100x (stocks: diclofenac 0.918, PTA 0.483, AgNO3 0.326 mg/mL)): 86.5 ± 11.7%
surviving fraction (HaCat [3]; 6h + 24h, dil. 1000x (stocks: diclofenac 0.918, PTA 0.483, AgNO3 0.326 mg/mL)): 92.5 ± 9.1%
surviving fraction (HaCat [3]; 24h + 24h, dil. 10 000x (stocks: diclofenac 0.918, PTA 0.483, AgNO3 0.326 mg/mL)): 99.3 ± 12.8%
surviving fraction (HaCat [3]; 24h + 24h, dil. 100x (stocks: diclofenac 0.918, PTA 0.483, AgNO3 0.326 mg/mL)): 88.8 ± 5.8%
surviving fraction (HaCat [3]; 24h + 24h, dil. 1000x (stocks: diclofenac 0.918, PTA 0.483, AgNO3 0.326 mg/mL)): 99.2 ± 6.8%
surviving fraction (HaCat [3]; 72h + 24h, dil. 10 000x (stocks: diclofenac 0.918, PTA 0.483, AgNO3 0.326 mg/mL)): 102.3 ± 11.2%
surviving fraction (HaCat [3]; 72h + 24h, dil. 100x (stocks: diclofenac 0.918, PTA 0.483, AgNO3 0.326 mg/mL)): 88.4 ± 5.2%
surviving fraction (HaCat [3]; 72h + 24h, dil. 1000x (stocks: diclofenac 0.918, PTA 0.483, AgNO3 0.326 mg/mL)): 99.2 ± 5.9%
surviving fraction (PANC-1 [4]; PANC-1, 6h + 24h, dil. 10 000x (stocks: diclofenac 0.918, PTA 0.483, AgNO3 0.326 mg/mL)): 98.6 ± 7.8%
surviving fraction (PANC-1 [4]; PANC-1, 6h + 24h, dil. 100x (stocks: diclofenac 0.918, PTA 0.483, AgNO3 0.326 mg/mL)): 75.3 ± 6.4%
surviving fraction (PANC-1 [4]; PANC-1, 6h + 24h, dil. 1000x (stocks: diclofenac 0.918, PTA 0.483, AgNO3 0.326 mg/mL)): 84.5 ± 9.8%
surviving fraction (PANC-1 [4]; PANC-1, 24h + 24h, dil. 10 000x (stocks: diclofenac 0.918, PTA 0.483, AgNO3 0.326 mg/mL)): 89.5 ± 9.9%
surviving fraction (PANC-1 [4]; PANC-1, 24h + 24h, dil. 100x (stocks: diclofenac 0.918, PTA 0.483, AgNO3 0.326 mg/mL)): 71.2 ± 6.5%
surviving fraction (PANC-1 [4]; PANC-1, 24h + 24h, dil. 1000x (stocks: diclofenac 0.918, PTA 0.483, AgNO3 0.326 mg/mL)): 82.4 ± 7.7%
surviving fraction (PANC-1 [4]; PANC-1, 72h + 24h, dil. 10 000x (stocks: diclofenac 0.918, PTA 0.483, AgNO3 0.326 mg/mL)): 89.4 ± 6.3%
surviving fraction (PANC-1 [4]; PANC-1, 72h + 24h, dil. 100x (stocks: diclofenac 0.918, PTA 0.483, AgNO3 0.326 mg/mL)): 68.5 ± 6.9%
surviving fraction (PANC-1 [4]; PANC-1, 72h + 24h, dil. 1000x (stocks: diclofenac 0.918, PTA 0.483, AgNO3 0.326 mg/mL)): 80.3 ± 4.1%
cytotoxicity seen by AO/PI staining (PANC-1 cells): did not induce visible cytotoxicity
log P [5]: 1.4
IC50 (DU-145 [6]): 803 ± 14.7 µM
IC50 (A549 [7]): 699 ± 7.1 µM
IC50 (MRC5): 977.3 ± 5.9 µM
IC50 (HaCat [8]): 1.14 ± 0.0183 mM
IC50 (PANC-1 [9]): 801 ± 124 µM
IC50 (MCF7): 978 ± 10.4 µM
